Read-outs that look alike come from different tables or passages of the source.
T1: GST-HsPRMT7 (Homo sapiens, UniProt Q9NVM4)
T1 construct: full-length human PRMT7 (residues 1–692); 34693; host or cells: E. coli BL21 DE3
T1 sequence (Q9NVM4 1-692): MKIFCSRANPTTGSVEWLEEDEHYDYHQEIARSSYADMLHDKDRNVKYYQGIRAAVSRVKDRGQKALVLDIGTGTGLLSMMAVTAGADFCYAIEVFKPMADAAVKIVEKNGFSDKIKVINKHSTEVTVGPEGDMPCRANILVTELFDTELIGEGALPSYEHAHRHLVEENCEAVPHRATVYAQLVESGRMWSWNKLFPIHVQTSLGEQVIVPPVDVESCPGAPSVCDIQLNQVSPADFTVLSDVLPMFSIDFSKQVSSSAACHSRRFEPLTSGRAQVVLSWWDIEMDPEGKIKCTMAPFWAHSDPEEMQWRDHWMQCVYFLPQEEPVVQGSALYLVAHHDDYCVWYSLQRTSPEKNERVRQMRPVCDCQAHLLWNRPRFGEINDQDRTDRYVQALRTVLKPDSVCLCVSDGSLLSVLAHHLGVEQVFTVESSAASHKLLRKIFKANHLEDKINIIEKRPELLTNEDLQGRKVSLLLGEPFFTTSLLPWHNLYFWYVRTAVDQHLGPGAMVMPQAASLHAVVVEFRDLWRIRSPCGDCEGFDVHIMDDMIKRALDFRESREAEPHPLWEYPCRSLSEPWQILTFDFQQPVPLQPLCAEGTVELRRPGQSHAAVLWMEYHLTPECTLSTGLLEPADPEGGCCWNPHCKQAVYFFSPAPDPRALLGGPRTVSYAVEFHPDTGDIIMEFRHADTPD

B1: SF3B2: splicing factor SF3B2, methylated by PRMT9 at Arg508 (protein, UniProt Q13435 1-895, looked up)
Splicing factor 3B subunit 2: MATEHPEPPKAELQLPPPPPPGHYGAWAAQELQAKLAEIGAPIQGNREELVERLQSYTRQTGIVLNRPVLRGEDGDKAAPPPMSAQLPGIPMPPPPLGLPPLQPPPPPPPPPPGLGLGFPMAHPPNLGPPPPLRVGEPVALSEEERLKLAQQQAALLMQQEERAKQQGDHSLKEHELLEQQKRAAVLLEQERQQEIAKMGTPVPRPPQDMGQIGVRTPLGPRVAAPVGPVGPTPTVLPMGAPVPRPRGPPPPPGDENREMDDPSVGPKIPQALEKILQLKESRQEEMNSQQEEEEMETDARSSLGQSASETEEDTVSVSKKEKNRKRRNRKKKKKPQRVRGVSSESSGDREKDSTRSRGSDSPAADVEIEYVTEEPEIYEPNFIFFKRIFEAFKLTDDVKKEKEKEPEKLDKLENSAAPKKKGFEEEHKDSDDDSSDDEQEKKPEAPKLSKKKLRRMNRFTVAELKQLVARPDVVEMHDVTAQDPKLLVHLKATRNSVPVPRHWCFKRKYLQGKRGIEKPPFELPDFIKRTGIQEMREALQEKEEQKTMKSKMREKVRPKMGKIDIDYQKLHDAFFKWQTKPKLTIHGDLYYEGKEFETRLKEKKPGDLSDELRISLGMPVGPNAHKVPPPWLIAMQRYGPPPSYPNLKIPGLNSPIPESCSFGYHAGGWGKPPVDETGKPLYGDVFGTNAAEFQTKTEEEEIDRTPWGELEPSDEESSEEEEEEESDEDKPDETGFITPADSGLITPGGFSSVPAGMETPELIELRKKKIEEAMDGSETPQLFTVLPEKRTATVGGAMMGSTHIYDMSTVMSRKGPAPELQGVEVALAPEELELDPMAMTQKYEEHVREQQAQVEKEDFSDMVAEHAAKQKQKKRKAQPQDSRGGSKKYKEFKF

Legend:
GST-HsPRMT7 [1] = molecular target: T1, GST-HsPRMT7; test: P81 phosphocellulose filter paper methylation assay with peptide substrates (cpm, end point and time course); format: biochemical; conditions: 10 μM peptide
Description: (§1) In vitro methylation assays were performed with GST-HsPRMT7, the indicated substrate protein or peptide, and 1.4 μM S-adenosyl-L-[methyl-^3H]methionine ([^3H]-AdoMet; PerkinElmer cat no. NET155V), prepared from diluting a stock of 7.0 μM [^3H]-AdoMet (81.9 Ci/mmol, 1 mCi/mL in 9:1 10 mM H2SO4:EtOH, v/v) in 10 mM HCl. All reactions were performed using distilled water buffered with 50 mM potassium HEPES, pH 9.5 and 1 mM DTT, reaching a final reaction volume of 30 μL. The reactions were initiated by adding [^3H]-AdoMet to a final concentration of 0.14 μM. Control reactions (enzyme-only, substrate-only) contained distilled water instead of substrate or GST-HsPRMT7, respectively. After initiation with [^3H]-AdoMet, all reactions analyzed via P81 phosphocellulose filter paper assay were incubated in a water bath at 25°C unless otherwise indicated for the specified time periods and were terminated with 0.5 μL 100% (w/v) trifluoroacetic acid (TFA). P81 assays performed at t = 0 were individually terminated immediately following initiation. Samples analyzed via SDS-PAGE were incubated at 4°C for 24 hours and were quenched by adding 5x SDS sample loading buffer (250 mM Tris-HCl, pH 6.8; 10% SDS, 30% glycerol, 10% β-mercaptoethanol, 0.2% bromophenol blue), followed by heating at 97°C for 3 min.
(§2) In vitro methylation assays with GST-HsPRMT7, selected methyl-accepting substrates, and [^3H]-AdoMet were set up as described previously and performed in triplicate. Following incubation at 25°C unless otherwise indicated for the time periods specified, all samples were quenched with 0.5 μL 100% TFA and centrifuged at 9,300 g for 10 seconds in an Eppendorf centrifuge (Model 5417C). 1 cm^2 pieces of P81 phosphocellulose filter paper (LabAlley catalog no. 05-717-2A) were spotted with 25 μL from each reaction mixture and set to dry overnight. The following day, all filter paper pieces were washed three times with 50 mM sodium bicarbonate solution, pH 9.0, and dried again in liquid scintillation vials. After 5 mL of Safety Solve fluor (RPI industries) was added to each vial, [^3H] radioactivity in each sample was quantified via liquid scintillation counter (Beckman LS6500) for four total cycles at 5 minutes per sample. All data presented are expressed as averages of the cpm from cycles 2–4.
(§3) Statistical analyses were performed using the “Analyze Data” function on GraphPad Prism v.8.0.1. To determine statistical significance, unpaired homoscedastic two-tailed Student’s t tests were performed with significance level α = 0.05 with the relevant data. To obtain apparent km and Vmax values, kinetic data were analyzed by non-linear regression using the Michaelis-Menten equation.

GST-HsPRMT7 [2] = molecular target: T1, GST-HsPRMT7; test: Michaelis-Menten kinetics of peptide substrate methylation (P81 phosphocellulose paper assay); format: biochemical; parameters: key to Vmax, Michaelis-Menten best-fit value, Fig7 / Vmax, Michaelis-Menten best-fit value, Fig8: Vmax expressed as cpm (averages of cycles 2–4)
Description: as §1, §2, §3

human PRMT7 = conditions: addition of 50 mM NaCl or KCl; cited from earlier work
Description: Comparatively, a previous study of ionic strength in human HEK293 cells estimates the intracellular concentration of potassium ions to be about 120–140 mM in human cells. As such, our results in Fig 7 led us to question whether this dramatic decrease in activity may be associated with a loss of either substrate-enzyme binding affinity or catalytic activity. || We confirm that human PRMT7 activity is quite sensitive to changes in the RXR target sequence in the substrate protein. […] The exquisite specificity of PRMT7 toward the basic RXR motif can be contrasted to the much broader speci ...

PRMT9 = conditions: methylation of SF3B2 at Arg508 (505-CFKRKYL-511); cited from earlier work
Source text: We confirm that human PRMT7 activity is quite sensitive to changes in the RXR target sequence in the substrate protein. […] The exquisite specificity of PRMT7 toward the basic RXR motif can be contrasted to the much broader speci ...

| Molecule | methylation activity (GST-HsPRMT7 [1]; 5 μg GST-HsPRMT7, 0.14 μM [3H]-AdoMet, 25°C, 1 hour (Fig 4), approximate) | methylation activity (maximum value) (GST-HsPRMT7 [1]; 5 μg GST-HsPRMT7, 0.14 μM [3H]-AdoMet, 25°C, t = 120 min (Fig 6), approximate) | methylation activity (maximum) (GST-HsPRMT7 [1]; 5 μg GST-HsPRMT7, 0.14 μM [3H]-AdoMet, 25°C, t = 3 hours (Fig 4), approximate) | GST-HsPRMT7 methylation activity (GST-HsPRMT7 [1]; 5 μg GST-HsPRMT7, 0.14 μM [3H]-AdoMet, 40 min, 25°C (Fig 3), in words) | PRMT7 methylation activity (GST-HsPRMT7 [1]; 5 μg GST-HsPRMT7, 0.14 μM [3H]-AdoMet, 20 h, 4°C (Fig 5), in words) | Mean of GST-HsPRMT7 + peptide, Fig3 (GST-HsPRMT7 [1]; mean of n = 3, 40 min, 25°C) | Difference between means ± SEM vs peptide only, Fig3 (GST-HsPRMT7 [1]; n = 3, 40 min, 25°C, SEM) | Km (GST-HsPRMT7 [2]; + 130 mM KCl, 5 μg GST-HsPRMT7, 0.14 μM [3H]-AdoMet, 60 min, 25°C, GraphPad Prism fit, read-out: Km, Michaelis-Menten best-fit value, Fig8) | Km (GST-HsPRMT7 [2]; +130 mM KCl, apparent km, 5 μg GST-HsPRMT7, various peptide concentrations, 0.14 μM [3H]-AdoMet, 60 min, 25°C, pH 9.5, Michaelis-Menten fit, triplicates (Fig 8), read-out: km) | Km (GST-HsPRMT7 [2]; no added salt, apparent km of peptide substrate, 5 μg GST-HsPRMT7, various peptide concentrations, 0.14 μM [3H]-AdoMet, 60 min, 25°C, pH 9.5, Michaelis-Menten fit, triplicates (Fig 8), read-out: km) | Vmax, Michaelis-Menten best-fit value, Fig8 (GST-HsPRMT7 [2]; no salt, 5 μg GST-HsPRMT7, 0.14 μM [3H]-AdoMet, 60 min, 25°C, GraphPad Prism fit) | Km (GST-HsPRMT7 [2]; no salt, 5 μg GST-HsPRMT7, 0.14 μM [3H]-AdoMet, 60 min, 25°C, GraphPad Prism fit, read-out: Km, Michaelis-Menten best-fit value, Fig8) | increase of apparent km on adding 130 mM KCl (GST-HsPRMT7 [2]; with vs without 130 mM KCl (Fig 8, Table 2)) | change of Vmax after adding 130 mM KCl (GST-HsPRMT7 [2]; with vs without 130 mM KCl (Fig 8, Table 2), in words) | change of GST-HsPRMT7 activity on addition of salt (human PRMT7) | Km (PRMT9) |
| --- | --- | --- | --- | --- | --- | --- | --- | --- | --- | --- | --- | --- | --- | --- | --- | --- |
| Ac-KKDGKKRKRSRKESY-NH2 [Hs H2B (23–37), synthetic peptide of amino acids 23–37 of human histone H2B, PRMT7 substrate used as positive control, reference compound] | approximately 6,000 cpm | about 4,000 cpm | approximately 8,000 cpm | highest | highest PRMT7 methylation activity | 1604 cpm | 1523 ± 86.54 cpm | 16.8 µM | 17 µM | 0.6 µM | 17053 | 0.558 µM | 30 fold | relatively unchanged | decreases by half |  |
| B1 |  |  |  |  |  |  |  |  |  |  |  |  |  |  |  | 0.08 µM |
